According to ChEMBL document CHEMBL4257449, “New N-(2-phenyl-4-oxo-1,3-thiazolidin-3-yl)-1,2-benzothiazole-3-carboxamides and acetamides as antimicrobial agents” (2017):
Values after ≈ are worked out from the molar mass of the structure shown.

Assays:
Micrococcus flavus [1] = experiment: Antibacterial activity against Micrococcus flavus ATCC 10240 after 24 hrs by microdilution method; assay type: functional; details: ATCC 10240, 24 h
Pseudomonas aeruginosa [2] = experiment: Bactericidal activity against Pseudomonas aeruginosa ATCC 27853 incubated for 24 hrs followed by serial sub-cultivation and measured after 24 hrs by microdilution method; assay type: functional
Bacillus cereus [3] = experiment: Bactericidal activity against Bacillus cereus incubated for 24 hrs followed by serial sub-cultivation and measured after 24 hrs by microdilution method; assay type: functional
Pseudomonas aeruginosa [4] = experiment: Antibacterial activity against Pseudomonas aeruginosa ATCC 27853 after 24 hrs by microdilution method; assay type: functional; details: ATCC 27853, 24 h
Salmonella typhimurium [5] = experiment: Bactericidal activity against Salmonella typhimurium ATCC 13311 incubated for 24 hrs followed by serial sub-cultivation and measured after 24 hrs by microdilution method; assay type: functional, Salmonella enterica subsp. enterica serovar Typhimurium
Micrococcus flavus [6] = experiment: Bactericidal activity against Micrococcus flavus ATCC 10240 incubated for 24 hrs followed by serial sub-cultivation and measured after 24 hrs by microdilution method; assay type: functional
Listeria monocytogenes [7] = experiment: Bactericidal activity against Listeria monocytogenes NCTC 7973 incubated for 24 hrs followed by serial sub-cultivation and measured after 24 hrs by microdilution method; assay type: functional
Enterobacter cloacae [8] = experiment: Bactericidal activity against Enterobacter cloacae incubated for 24 hrs followed by serial sub-cultivation and measured after 24 hrs by microdilution method; assay type: functional
Staphylococcus aureus [9] = experiment: Antibacterial activity against Staphylococcus aureus ATCC 6538 after 24 hrs by microdilution method; assay type: functional; details: ATCC 6538, 24 h
Bacillus cereus [10] = experiment: Antibacterial activity against Bacillus cereus after 24 hrs by microdilution method; assay type: functional
Salmonella typhimurium [11] = experiment: Antibacterial activity against Salmonella typhimurium ATCC 13311 after 24 hrs by microdilution method; assay type: functional, Salmonella enterica subsp. enterica serovar Typhimurium; details: Salmonella enterica, ATCC 13311, 24 h
Enterobacter cloacae [12] = experiment: Antibacterial activity against Enterobacter cloacae after 24 hrs by microdilution method; assay type: functional
Escherichia coli [13] = experiment: Antibacterial activity against Escherichia coli ATCC 35210 after 24 hrs by microdilution method; assay type: functional; details: ATCC 35210, 24 h
Escherichia coli [14] = experiment: Bactericidal activity against Escherichia coli ATCC 35210 incubated for 24 hrs followed by serial sub-cultivation and measured after 24 hrs by microdilution method; assay type: functional
Staphylococcus aureus [15] = experiment: Bactericidal activity against Staphylococcus aureus ATCC 6538 incubated for 24 hrs followed by serial sub-cultivation and measured after 24 hrs by microdilution method; assay type: functional
Listeria monocytogenes [16] = experiment: Antibacterial activity against Listeria monocytogenes NCTC 7973 after 24 hrs by microdilution method; assay type: functional; details: NCTC 7973, 24 h
Aspergillus fumigatus [17] = experiment: Antifungal activity against Aspergillus fumigatus after 72 hrs by serial dilution method; assay type: functional
Talaromyces funiculosus [18] = experiment: Fungicidal activity against Penicillium funiculosum ATCC 36839 incubated for 72 hrs followed by serial sub-cultivation for 72 hrs and measured after 72 hrs by serial dilution method; assay type: functional
Aspergillus versicolor [19] = experiment: Fungicidal activity against Aspergillus versicolor ATCC 11730 incubated for 72 hrs followed by serial sub-cultivation for 72 hrs and measured after 72 hrs by serial dilution method; assay type: functional
Aspergillus fumigatus [20] = experiment: Fungicidal activity against Aspergillus fumigatus incubated for 72 hrs followed by serial sub-cultivation for 72 hrs and measured after 72 hrs by serial dilution method; assay type: functional
Aspergillus ochraceus [21] = experiment: Antifungal activity against Aspergillus ochraceus ATCC 12066 after 72 hrs by serial dilution method; assay type: functional; details: ATCC 12066, 72 h
Aspergillus niger [22] = experiment: Fungicidal activity against Aspergillus niger ATCC 6275 incubated for 72 hrs followed by serial sub-cultivation for 72 hrs and measured after 72 hrs by serial dilution method; assay type: functional
Talaromyces funiculosus [23] = experiment: Antifungal activity against Penicillium funiculosum ATCC 36839 after 72 hrs by serial dilution method; assay type: functional; details: ATCC 36839, 72 h
Aspergillus niger [24] = experiment: Antifungal activity against Aspergillus niger ATCC 6275 after 72 hrs by serial dilution method; assay type: functional; details: ATCC 6275, 72 h
Penicillium ochrochloron [25] = experiment: Antifungal activity against Penicillium ochrochloron ATCC 9112 after 72 hrs by serial dilution method; assay type: functional; details: ATCC 9112, 72 h
Penicillium ochrochloron [26] = experiment: Fungicidal activity against Penicillium ochrochloron ATCC 9112 incubated for 72 hrs followed by serial sub-cultivation for 72 hrs and measured after 72 hrs by serial dilution method; assay type: functional
Aspergillus ochraceus [27] = experiment: Fungicidal activity against Aspergillus ochraceus ATCC 12066 incubated for 72 hrs followed by serial sub-cultivation for 72 hrs and measured after 72 hrs by serial dilution method; assay type: functional
Candida albicans [28] = experiment: Fungicidal activity against Candida albicans incubated for 72 hrs followed by serial sub-cultivation for 72 hrs and measured after 72 hrs by serial dilution method; assay type: functional
Trichoderma viride [29] = experiment: Antifungal activity against Trichoderma viride IAM 5061 after 72 hrs by serial dilution method; assay type: functional; details: IAM 5061, 72 h
Aspergillus versicolor [30] = experiment: Antifungal activity against Aspergillus versicolor ATCC 11730 after 72 hrs by serial dilution method; assay type: functional; details: ATCC 11730, 72 h
Trichoderma viride [31] = experiment: Fungicidal activity against Trichoderma viride IAM 5061 incubated for 72 hrs followed by serial sub-cultivation for 72 hrs and measured after 72 hrs by serial dilution method; assay type: functional
Candida albicans [32] = experiment: Antifungal activity against Candida albicans after 72 hrs by serial dilution method; assay type: functional

| MIC (Micrococcus flavus [1]) [µM] | MIC (Pseudomonas aeruginosa [4]) [µM] | MIC (Staphylococcus aureus [9]) [µM] | MIC (Bacillus cereus [10]) [µM] | MIC (Salmonella typhimurium [11]) [µM] | MIC (Enterobacter cloacae [12]) [µM] | MIC (Escherichia coli [13]) [µM] | MIC (Listeria monocytogenes [16]) [µM] | SMILES | MBC99.5 (Pseudomonas aeruginosa [2]) [×10⁻² umol/ml] | MBC99.5 (Bacillus cereus [3]) [×10⁻² umol/ml] | MBC99.5 (Salmonella typhimurium [5]) [×10⁻² umol/ml] | MBC99.5 (Micrococcus flavus [6]) [×10⁻² umol/ml] | MBC99.5 (Listeria monocytogenes [7]) [×10⁻² umol/ml] | MBC99.5 (Enterobacter cloacae [8]) [×10⁻² umol/ml] | MBC99.5 (Escherichia coli [14]) [×10⁻² umol/ml] | MBC99.5 (Staphylococcus aureus [15]) [×10⁻² umol/ml] | MIC (Aspergillus fumigatus [17]) [µM] | MFC99.5 (Talaromyces funiculosus [18]) [×10⁻² umol/ml] | MFC99.5 (Aspergillus versicolor [19]) [×10⁻² umol/ml] | MFC99.5 (Aspergillus fumigatus [20]) [×10⁻² umol/ml] | further results |
| --- | --- | --- | --- | --- | --- | --- | --- | --- | --- | --- | --- | --- | --- | --- | --- | --- | --- | --- | --- | --- | --- |
| 248 (≈ 86.7 µg/mL) | 744 (≈ 260 µg/mL) | 248 (≈ 86.7 µg/mL) | 248 (≈ 86.7 µg/mL) | 248 (≈ 86.7 µg/mL) | 248 (≈ 86.7 µg/mL) | 372 (≈ 130 µg/mL) | 372 (≈ 130 µg/mL) | CC1(C)S[C@@H]2[C@H](NC(=O)[C@H](N)c3ccccc3)C(=O)N2[C@H]1C(=O)O [AMPICILLIN] | 124 | 37.2 | 49.2 | 37.2 | 74.4 | 37.2 | 49.2 | 37.2 |  |  |  |  |  |
|  |  |  |  |  |  |  |  | c1ccc(-c2ccc(C(c3ccccc3)n3ccnc3)cc2)cc1 (centres undefined) [BIFONAZOLE] |  |  |  |  |  |  |  |  | 480 (≈ 149 µg/mL) | 80 | 64 | 64 | MIC (Aspergillus ochraceus [21]): 480 µM (≈ 149 µg/mL); MFC99.5 (Aspergillus niger [22]): 64 ×10⁻² umol/ml; MIC (Talaromyces funiculosus [23]): 640 µM (≈ 199 µg/mL); MIC (Aspergillus niger [24]): 480 µM (≈ 149 µg/mL); MIC (Penicillium ochrochloron [25]): 640 µM (≈ 199 µg/mL); MFC99.5 (Penicillium ochrochloron [26]): 80.5 ×10⁻² umol/ml; MFC99.5 (Aspergillus ochraceus [27]): 80 ×10⁻² umol/ml; MFC99.5 (Candida albicans [28]): 64 ×10⁻² umol/ml; MIC (Trichoderma viride [29]): 640 µM (≈ 199 µg/mL); MIC (Aspergillus versicolor [30]): 320 µM (≈ 99.3 µg/mL); MFC99.5 (Trichoderma viride [31]): 80 ×10⁻² umol/ml; MIC (Candida albicans [32]): 320 µM (≈ 99.3 µg/mL) |
|  |  |  |  |  |  |  |  | CC(=O)N1CCN(c2ccc(OCC3COC(Cn4ccnc4)(c4ccc(Cl)cc4Cl)O3)cc2)CC1 (centres undefined) [KETOCONAZOLE] |  |  |  |  |  |  |  |  | 380 (≈ 202 µg/mL) | 95 | 95 | 95 | MIC (Aspergillus ochraceus [21]): 280 µM (≈ 149 µg/mL); MFC99.5 (Aspergillus niger [22]): 95 ×10⁻² umol/ml; MIC (Talaromyces funiculosus [23]): 380 µM (≈ 202 µg/mL); MIC (Aspergillus niger [24]): 380 µM (≈ 202 µg/mL); MIC (Penicillium ochrochloron [25]): 1900 µM (≈ 1010 µg/mL); MFC99.5 (Penicillium ochrochloron [26]): 285 ×10⁻² umol/ml; MFC99.5 (Aspergillus ochraceus [27]): 38 ×10⁻² umol/ml; MFC99.5 (Candida albicans [28]): 56 ×10⁻² umol/ml; MIC (Trichoderma viride [29]): 1900 µM (≈ 1010 µg/mL); MIC (Aspergillus versicolor [30]): 380 µM (≈ 202 µg/mL); MFC99.5 (Trichoderma viride [31]): 285 ×10⁻² umol/ml; MIC (Candida albicans [32]): 380 µM (≈ 202 µg/mL) |
| 86 (≈ 50 µg/mL) | 172 (≈ 100 µg/mL) | 172 (≈ 100 µg/mL) | 43 (≈ 25 µg/mL) | 172 (≈ 100 µg/mL) | 43 (≈ 25 µg/mL) | 172 (≈ 100 µg/mL) | 258 (≈ 150 µg/mL) | CN[C@@H]1[C@H](O[C@H]2[C@H](O[C@H]3[C@H](O)[C@@H](O)[C@H](N=C(N)N)[C@@H](O)[C@@H]3N=C(N)N)O[C@@H](C)[C@]2(O)C=O)O[C@@H](CO)[C@H](O)[C@H]1O [STREPTOMYCIN] | 34.4 | 8.6 | 34.4 | 17.2 | 51.6 | 8.6 | 34.4 | 34.4 |  |  |  |  |  |
